Measurements: patent US20260191968A1, “PROTAC DEGRADERS OF MLLT1 AND/OR MLLT3” (DARK BLUE THERAPEUTICS LTD, priority 2024, published 2026)

Legend:
MLLT1 = molecular target: T1, MLLT1 (Homo sapiens, UniProt Q03111); assay: MLLT1 degradation assay in MV4-11 cells (JESS chemiluminescent detection), three concentrations, 24 h; type: cell-based; conditions: with respect to DMSO control
T1 construct: host or cells: MV4-11
T1 sequence (Q03111 1-559): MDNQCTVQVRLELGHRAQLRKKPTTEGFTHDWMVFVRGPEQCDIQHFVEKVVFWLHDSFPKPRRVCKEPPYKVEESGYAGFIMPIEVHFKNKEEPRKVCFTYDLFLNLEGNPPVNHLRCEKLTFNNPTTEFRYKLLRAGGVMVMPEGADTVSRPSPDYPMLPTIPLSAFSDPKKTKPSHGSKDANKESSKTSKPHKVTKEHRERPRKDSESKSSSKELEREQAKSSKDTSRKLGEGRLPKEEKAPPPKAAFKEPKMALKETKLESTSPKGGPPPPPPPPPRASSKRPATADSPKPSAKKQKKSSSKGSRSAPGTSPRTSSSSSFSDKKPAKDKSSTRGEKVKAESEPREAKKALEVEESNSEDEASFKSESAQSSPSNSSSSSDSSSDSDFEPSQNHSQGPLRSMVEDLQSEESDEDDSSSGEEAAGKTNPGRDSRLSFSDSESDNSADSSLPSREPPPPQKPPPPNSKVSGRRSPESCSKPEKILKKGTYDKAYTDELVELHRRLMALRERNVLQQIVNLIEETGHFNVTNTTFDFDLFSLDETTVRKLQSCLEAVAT
In short: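 MV4-11 cells treated 24 h at 37° C, 5% CO2 with 1000, 100 and 10 nM compound (0.1% DMSO final). MLLT1 quantified by automated capillary chemiluminescent immunodetection; band peak area expressed as % degradation relative to DMSO control.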

MV4-11 cells = assay: MV4-11 cellular proliferative assay, Assay Format B (CTG 2.0, 168 h); type: cell-based; conditions: Homo sapiens, 168 h (7 days), CTG 2.0, read-out: IC50 (MV4-11 cellular proliferative assay, Assay format B)
In short: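 MV4-11 cells seeded overnight in IMDM + 10% FBS, then exposed to 10-point, 3-fold dilutions from 1 uM or 100 nM top concentration (0.3% DMSO final) for 168 h at 37 °C. CTG 2.0 luminescence read; % viability vs DMSO control fitted by four-parameter logistic regression.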

Row | Compound | MLLT1% Degradation @ 0.01 μM (MLLT1) | MLLT1% Degradation @ 0.1 μM (MLLT1) | MLLT1% Degradation @ 1 μM (MLLT1) | IC50 (MV4-11 cells)
1 | CN1CCC[C@@H]1c1[nH]c2cc(NC(=O)c3ccc(OCCC4CCN(c5cccc6c5CN(C5CCC(=O)NC5=O)C6=O)CC4)cc3)ncc2c1Cl (mixture of isomers) [Example 160, N-(3-chloro-2-((R)-1-methylpyrrolidin-2-yl)-1H-pyrrolo[3,2-c]pyridin-6-yl)-4-(2-(1-(2-(2,6-dioxopiperidin-3-yl)-1-oxoisoindolin-4-yl)piperidin-4-yl)ethoxy)benzamide] | A (Category A: A ≥ 75% degradation) | A (Category A: A ≥ 75% degradation) | A (Category A: A ≥ 75% degradation) | ≤ 100 nM
2 | CN1CCC[C@@H]1c1cc2cnc(NC(=O)c3ccc(N4CCN(Cc5ccc(-c6cccc7c6CN(C6CCC(=O)NC6=O)C7=O)cc5)CC4)nc3)cc2[nH]1 (stereo partly drawn) [Example 129, 6-(4-(4-(2-(2,6-dioxopiperidin-3-yl)-1-oxoisoindolin-4-yl)benzyl)piperazin-1-yl)-N-(2-((R)-1-methylpyrrolidin-2-yl)-1H-pyrrolo[3,2-c]pyridin-6-yl)nicotinamide] | B (Category B: 50% ≤ B < 75% degradation) | B (Category B: 50% ≤ B < 75% degradation) | C (Category C: 25% ≤ C < 50% degradation) | ≤ 100 nM
3 | CN1CC2(CC2)CC1c1cc2cnc(NC(=O)c3ccc(CCCCC#Cc4cccc5c4CN(C4CCC(=O)NC4=O)C5=O)nc3)cc2[nH]1 (stereo not drawn) [Example 86, 6-(6-(2-(2,6-dioxopiperidin-3-yl)-1-oxoisoindolin-4-yl)hex-5-yn-1-yl)-N-(2-((rel-R)-5-methyl-5-azaspiro[2.4]heptan-6-yl)-1H-pyrrolo[3,2-c]pyridin-6-yl)nicotinamide] | A (Category A: A ≥ 75% degradation) | A (Category A: A ≥ 75% degradation) | B (Category B: 50% ≤ B < 75% degradation) | ≤ 100 nM
4 | CN1CCC[C@@H]1c1cc2cnc(NC(=O)c3ccc(OCCC4CCN(c5cccc6c5CN(C5CCC(=O)NC5=O)C6=O)CC4)nc3)cc2[nH]1 (stereo partly drawn) [Example 158, 6-(2-(1-(2-(2,6-dioxopiperidin-3-yl)-1-oxoisoindolin-4-yl)piperidin-4-yl)ethoxy)-N-(2-((R)-1-methylpyrrolidin-2-yl)-1H-pyrrolo[3,2-c]pyridin-6-yl)nicotinamide] | A (Category A: A ≥ 75% degradation) | A (Category A: A ≥ 75% degradation) | A (Category A: A ≥ 75% degradation) | ≤ 100 nM
5 | CN1CCC[C@@H]1c1cc2cnc(NC(=O)c3ccc(CCCC#Cc4cccc5c4CN(C4CCC(=O)NC4=O)C5=O)nc3)cc2[nH]1 (stereo partly drawn) [Example 12, 6-(5-(2-(2,6-dioxopiperidin-3-yl)-1-oxoisoindolin-4-yl)pent-4-yn-1-yl)-N-(2-((R)-1-methylpyrrolidin-2-yl)-1H-pyrrolo[3,2-c]pyridin-6-yl)nicotinamide] | B (Category B: 50% ≤ B < 75% degradation) | A (Category A: A ≥ 75% degradation) | A (Category A: A ≥ 75% degradation) | ≤ 100 nM
6 | CN1CCC[C@@H]1c1cc2cnc(NC(=O)c3ccc(N4CCN(C(=O)CC5CCN(c6cccc7c6CN(C6CCC(=O)NC6=O)C7=O)CC5)CC4)cc3)cc2[nH]1 (stereo partly drawn) [Example 88, 4-(4-(2-(1-(2-(2,6-dioxopiperidin-3-yl)-1-oxoisoindolin-4-yl)piperidin-4-yl)acetyl)piperazin-1-yl)-N-(2-((R)-1-methylpyrrolidin-2-yl)-1H-pyrrolo[3,2-c]pyridin-6-yl)benzamide] | B (Category B: 50% ≤ B < 75% degradation) | A (Category A: A ≥ 75% degradation) | B (Category B: 50% ≤ B < 75% degradation) | ≤ 100 nM
7 | CN1CCC[C@@H]1c1cc2cnc(NC(=O)c3ccc(OCCC4CCN(c5cccc6c5CN(C5CCC(=O)NC5=O)C6=O)CC4)cc3F)cc2[nH]1 (stereo in doubt) [Example 172, 4-(2-(1-(2-((rel-S)-2,6-dioxopiperidin-3-yl)-1-oxoisoindolin-4-yl)piperidin-4-yl)ethoxy)-2-fluoro-N-(2-((R)-1-methylpyrrolidin-2-yl)-1H-pyrrolo[3,2-c]pyridin-6-yl)benzamide] | A (Category A: A ≥ 75% degradation) | A (Category A: A ≥ 75% degradation) | A (Category A: A ≥ 75% degradation) | ≤ 100 nM
8 | CN1CCC[C@@H]1c1cc2cnc(NC(=O)c3ccc(-c4cnn(CCCC5CCN(c6cccc7c6C(=O)N(C6CCC(=O)NC6=O)C7=O)CC5)c4)cn3)cc2[nH]1 (stereo partly drawn) [Example 211, 5-(1-(3-(1-(2-(2,6-dioxopiperidin-3-yl)-1,3-dioxoisoindolin-4-yl)piperidin-4-yl)propyl)-1H-pyrazol-4-yl)-N-(2-((R)-1-methylpyrrolidin-2-yl)-1H-pyrrolo[3,2-c]pyridin-6-yl)picolinamide] | A (Category A: A ≥ 75% degradation) | A (Category A: A ≥ 75% degradation) | A (Category A: A ≥ 75% degradation) | ≤ 100 nM
9 | CN1CCC[C@@H]1c1cc2cnc(NC(=O)c3ccc(N4CCN(CC5CCN(c6cccc7c6CN([C@@H]6CCC(=O)NC6=O)C7=O)CC5)CC4)cc3)cc2[nH]1 (relative stereo) [Example 118, 4-(4-((1-(2-((rel-R)-2,6-dioxopiperidin-3-yl)-1-oxoisoindolin-4-yl)piperidin-4-yl)methyl)piperazin-1-yl)-N-(2-((R)-1-methylpyrrolidin-2-yl)-1H-pyrrolo[3,2-c]pyridin-6-yl)benzamide] | C (Category C: 25% ≤ C < 50% degradation) | B (Category B: 50% ≤ B < 75% degradation) | B (Category B: 50% ≤ B < 75% degradation) | ≤ 100 nM
10 | CN1CCC[C@@H]1c1cc2cnc(NC(=O)c3cnc(N4CCC(C#Cc5cccc6c5CN(C5CCC(=O)NC5=O)C6=O)CC4)nc3)cc2[nH]1 (stereo partly drawn) [Example 65, 2-(4-((2-(2,6-dioxopiperidin-3-yl)-1-oxoisoindolin-4-yl)ethynyl)piperidin-1-yl)-N-(2-((R)-1-methylpyrrolidin-2-yl)-1H-pyrrolo[3,2-c]pyridin-6-yl)pyrimidine-5-carboxamide] | B (Category B: 50% ≤ B < 75% degradation) | B (Category B: 50% ≤ B < 75% degradation) | B (Category B: 50% ≤ B < 75% degradation) | ≤ 100 nM
11 | CN1CCC[C@@H]1c1[nH]c2cc(NC(=O)c3ccc(N4CCC(OCC5CCN(c6cccc7c6CN(C6CCC(=O)NC6=O)C7=O)CC5)CC4)nc3)ncc2c1Cl (stereo partly drawn) [Example 191, N-(3-chloro-2-((R)-1-methylpyrrolidin-2-yl)-1H-pyrrolo[3,2-c]pyridin-6-yl)-6-(4-((1-(2-(2,6-dioxopiperidin-3-yl)-1-oxoisoindolin-4-yl)piperidin-4-yl)methoxy)piperidin-1-yl)nicotinamide] | A (Category A: A ≥ 75% degradation) | A (Category A: A ≥ 75% degradation) | A (Category A: A ≥ 75% degradation) | ≤ 100 nM
12 | CN1CCC[C@@H]1c1cc2cnc(NC(=O)c3ccc(-c4cnn(CCCC5CCN(c6cccc7c6C(=O)N(C6CCC(=O)NC6=O)C7=O)CC5)c4)cc3F)cc2[nH]1 (stereo partly drawn) [Example 210, 4-(1-(3-(1-(2-(2,6-dioxopiperidin-3-yl)-1,3-dioxoisoindolin-4-yl)piperidin-4-yl)propyl)-1H-pyrazol-4-yl)-2-fluoro-N-(2-((R)-1-methylpyrrolidin-2-yl)-1H-pyrrolo[3,2-c]pyridin-6-yl)benzamide] | B (Category B: 50% ≤ B < 75% degradation) | A (Category A: A ≥ 75% degradation) | A (Category A: A ≥ 75% degradation) | ≤ 100 nM
13 | CN1CCC[C@@H]1c1cc2cnc(NC(=O)c3cc(F)c(OCCC4CCN(c5cccc6c5CN(C5CCC(=O)NC5=O)C6=O)CC4)cc3F)cc2[nH]1 (stereo partly drawn) [Example 230, 4-(2-(1-(2-(2,6-dioxopiperidin-3-yl)-1-oxoisoindolin-4-yl)piperidin-4-yl)ethoxy)-2,5-difluoro-N-(2-((R)-1-methylpyrrolidin-2-yl)-1H-pyrrolo[3,2-c]pyridin-6-yl)benzamide] | A (Category A: A ≥ 75% degradation) | A (Category A: A ≥ 75% degradation) | A (Category A: A ≥ 75% degradation) | ≤ 100 nM
